Earlier results as cited in US9622981B2, “Liquid-filled hard gel capsule pharmaceutical formulations” (Mylan Inc., priority 2011, dated 2017).

What was measured:
[1] = not given; remark: listed apart in the source
[2] = ordinary conditions

What does the source list for `C[C@]12C=CC(=O)N[C@@H]1CC[C@@H]1[C@@H]2CC[C@]2(C)[C@@H](C(=O)Nc3cc(C(F)(F)F)ccc3C(F)(F)F)CC[C@@H]12` [Dutasteride, (5α,17β)-N-[2,5 bis(trifluoromethyl)phenyl]-3-oxo-4-azaandrost-1-ene-17-carboxamide]?
solubility in water: insoluble; partition coefficient, Log P [1]: 5.609±0.618; stability [2]: stable under ordinary conditions
